Experimental data from ChEMBL document CHEMBL1201862, “PubChem BioAssay data set” (2004).
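Cells were grown in 96-well plates and exposed to each compound for 48 hours at five concentrations; endpoints were interpolated linearly between bracketing concentrations, or set to the highest concentration if not reached. GI50 marks 50% less growth.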 Calls of active or inactive are those of the source. Rule as the data show it: active = GI50 up to about 1.1 µM and inactive = higher.

Columns and labels:
Test in all cases: DTP human tumour cell line panel, 48 h
DLD-1 = system: DLD-1
DMS-114 = system: DMS-114
DMS-273 = system: DMS-273
KM-20L2 = system: KM-20L2
RXF 631 = system: RXF 631
HOP-18 = system: HOP-18
SNB-78 = system: SNB-78
XF498 = system: XF498
Hs-578T = system: Hs-578T

Row | Structure (SMILES) | GI50 (DLD-1) | GI50 (DMS-114) | GI50 (DMS-273) | GI50 (KM-20L2) | GI50 (RXF 631) | GI50 (HOP-18) | GI50 (SNB-78) | GI50 (XF498) | GI50 (Hs-578T)
1 | CCN1C(=O)N2C(OC)c3ccccc3C(Br)C2(OC)C1=O (centres undefined) | > 100 µM (inactive) | > 100 µM (inactive) | > 100 µM (inactive) | > 100 µM (inactive) | > 100 µM (inactive) |  |  |  | 
2 | CN1CCOC(c2ccccc2)O1 (centres undefined) | > 100 µM (inactive) | > 100 µM (inactive) | > 100 µM (inactive) | > 100 µM (inactive) | > 100 µM (inactive) | > 100 µM (inactive) | > 100 µM (inactive) |  | 
3 | CCC1=C(C[C@H]2NCCc3cc(OC)c(OC)cc32)C[C@H]2c3cc(OC)c(OC)cc3CCN2C1 | 0.0296 µM (active) | 0.0166 µM (active) | 0.0274 µM (active) | 0.0288 µM (active) | 0.0412 µM (active) | 0.667 µM (active) | 0.0388 µM (active) |  | 
4 | CC(C)(C)c1ccc(OCCOCCOc2ccc(C(C)(C)C)cc2S(N)(=O)=O)c(S(N)(=O)=O)c1 | 99.5 µM (inactive) | 16.9 µM (inactive) | 72.6 µM (inactive) |  | > 100 µM (inactive) | > 100 µM (inactive) | > 100 µM (inactive) |  | 
5 | CC12CCCC(C#N)(C1)OC2=O (centres undefined) | > 100 µM (inactive) |  | > 100 µM (inactive) | > 100 µM (inactive) | > 100 µM (inactive) |  | > 100 µM (inactive) | > 100 µM (inactive) | 
6 | Cc1ccc(NC(=O)SCCC(=O)O)cc1 | > 100 µM (inactive) | > 100 µM (inactive) | > 100 µM (inactive) | > 100 µM (inactive) | > 100 µM (inactive) |  | > 100 µM (inactive) |  | 
7 | CSc1nc2c(ncn2C2OC(CO)C(O)C(O)C2O)c(=O)n1C (centres undefined) | > 100 µM (inactive) | > 100 µM (inactive) | > 100 µM (inactive) | > 100 µM (inactive) |  | > 88.9 µM (inactive) | > 100 µM (inactive) | > 100 µM (inactive) | 
8 | C/C(CC(=O)Nc1cc(Cl)c(Cl)cc1Cl)=N\NC(N)=O | > 100 µM (inactive) | > 100 µM (inactive) | > 100 µM (inactive) | > 100 µM (inactive) | > 100 µM (inactive) |  |  | > 100 µM (inactive) | 
9 | O=c1n(C2CCCCC2)c(=C(Cl)Cl)c(=C(Cl)Cl)n1C1CCCCC1 | > 100 µM (inactive) | 53.1 µM (inactive) | > 100 µM (inactive) | > 100 µM (inactive) |  | > 100 µM (inactive) | 85.1 µM (inactive) | > 100 µM (inactive) | 
10 | CC(C)=CC1CC(=[N+]=[N-])C(=O)C1(C)C (centres undefined) | > 100 µM (inactive) | > 58.3 µM (inactive) |  | > 100 µM (inactive) |  | > 100 µM (inactive) | > 100 µM (inactive) | > 100 µM (inactive) | 
11 | COC(=O)c1c(-c2ccccc2)cc2c3cc(-c4ccccc4)c(C(=O)OC)n3c3ccccc3n12 | > 100 µM (inactive) | > 100 µM (inactive) | 79.3 µM (inactive) | > 100 µM (inactive) | > 100 µM (inactive) | > 100 µM (inactive) | > 100 µM (inactive) | > 100 µM (inactive) | 
12 | C/C(=N\NC(=O)C(N)=O)c1c(O)cc(C)oc1=O | > 100 µM (inactive) |  |  | > 100 µM (inactive) | > 100 µM (inactive) |  | > 100 µM (inactive) |  | 
13 | CN1CCCC2[C@@H]3CCC4c5nonc5CC[C@]4(C)C3CC[C@@]21C (some centres undefined) | 51.1 µM (inactive) | > 100 µM (inactive) | 93.3 µM (inactive) | 23.3 µM (inactive) |  | > 100 µM (inactive) | > 100 µM (inactive) | 24.4 µM (inactive) | 
14 | Cc1c(N)nc(C2CC(=O)N2CC(N)C(N)=O)nc1C(=O)NC(C(=O)NC(C)C(O)C(C)C(=O)NC(C(=O)NCCc1nc(-c2nc(C(=O)NCCNCC(C)O)cs2)cs1)C(C)O)C(OC1OC(CO)C(O)C(O)C1OC1OC(CO)C(O)C(OC(N)=O)C1O)c1c[nH]cn1 (centres undefined) | 32.4 µM (inactive) | 0.397 µM (active) | 0.129 µM (active) | 58.6 µM (inactive) |  | 13.4 µM (inactive) | > 89.3 µM (inactive) | 1.35 µM (inactive) | 2.3 µM (inactive)
15 | CC1CCC2(CC1)NN=c1s/c(=C\c3ccc(O)cc3)c(=O)n1N2 (centres undefined) | > 100 µM (inactive) | > 100 µM (inactive) | > 100 µM (inactive) | > 100 µM (inactive) |  | > 100 µM (inactive) | > 100 µM (inactive) | > 100 µM (inactive) | 
16 | Nc1ccc(Cn2ccc3c4c(N)nc(N)nc4ccc32)cc1 | < 0.01 µM (active) | < 0.01 µM (active) | < 0.01 µM (active) | < 0.01 µM (active) |  | 10.2 µM (inactive) | 7.35 µM (inactive) | 1.5 µM (inactive) | 2.28 µM (inactive)
17 | O=NN1C(c2ccccc2)C2CCCC(C2=O)C1c1ccccc1 (centres undefined) | 43.3 µM (inactive) | 32.5 µM (inactive) | 23.8 µM (inactive) | 16 µM (inactive) |  | 8.73 µM (inactive) | 40.3 µM (inactive) | 13.6 µM (inactive) | 
18 | COc1ccc(S(=O)(=O)N/N=C/CN2C(=O)c3ccccc3C2=O)cc1OC | > 100 µM (inactive) | > 100 µM (inactive) | > 100 µM (inactive) | > 100 µM (inactive) | > 100 µM (inactive) |  |  | > 100 µM (inactive) | 
19 | CCOC(=O)NC(=O)c1cn(CCCCCCOC(=O)NCCCCCCNC(=O)OCCCCCCn2cc(C(=O)NC(=O)OCC)c(=O)[nH]c2=O)c(=O)[nH]c1=O | > 100 µM (inactive) | 67.9 µM (inactive) | > 100 µM (inactive) | > 100 µM (inactive) | > 100 µM (inactive) | > 100 µM (inactive) |  |  | 
20 | CCOC(=O)C1C=C2O[C@@H]3OC4(CCCCC4)O[C@@H]3C2[C@H]2C(=O)C=CC(=O)[C@@]12C(=O)OC (some centres undefined) | 16.6 µM (inactive) | 4.75 µM (inactive) | 8.65 µM (inactive) | 14.5 µM (inactive) | 16.3 µM (inactive) | 15.7 µM (inactive) | 6.49 µM (inactive) | 7.29 µM (inactive) | 
21 | Nc1nc2[nH]c(=O)cnc2c(=O)[nH]1 [ISOXANTHOPTERIN] | > 125 µM (inactive) | > 125 µM (inactive) | > 125 µM (inactive) | > 72.4 µM (inactive) |  | > 5.81 µM (inactive) | > 125 µM (inactive) | 10.6 µM (inactive) | 
